Reference: patent US8957061B2, “Azetidine derivatives as sphingosine 1-phosphate (S1P) receptor modulators” (Allergan, Inc., priority 2013, dated 2015)

Molecular target: T1, human S1P1 receptor (Homo sapiens, UniProt P21453)
T1 construct: expressed in transfected cells; membranes used
Assay: GTP γ35S binding assay for S1P1 activity
Assay type: biochemical
Details: activity potency, S1P1 receptor from GTP γ35S; membranes of cells stably expressing the S1P1 receptor; test concentrations 0.08 to 5,000 nM
Protocol: Compounds were synthesized and tested for S1P1 activity using the GTP γ^35S binding assay. These compounds may be assessed for their ability to activate or block activation of the human S1P1 receptor in cells stably expressing the S1P1 receptor. GTP γ^35S binding was measured in the medium containing (mM) HEPES 25, pH 7.4, MgCl2 10, NaCl 100, dithiothreitol 0.5, digitonin 0.003%, 0.2 nM GTP γ^35S, and 5 μg membrane protein in a volume of 150 μl. Test compounds were included in the concentration range from 0.08 to 5,000 nM unless indicated otherwise. Membranes were incubated with 100 μM 5′-adenylylimidodiphosphate for 30 min, and subsequently with 10 μM GDP for 10 min on ice. Drug solutions and membrane were mixed, and then reactions were initiated by adding GTP γ^35S and continued for 30 min at 25° C. Reaction mixtures were filtered over Whatman GF/B filters under vacuum, and washed three times with 3 mL of ice-cold buffer (HEPES 25, pH7.4, MgCl2 10 and NaCl 100). Filters were dried and mixed with scintillant, and counted for ^35S activity using a β-counter. Agonist-induced GTP γ^35S binding was obtained by subtracting that in the absence of agonist. Binding data were analyzed using a non-linear regression method.

T1 sequence (P21453 whole entry): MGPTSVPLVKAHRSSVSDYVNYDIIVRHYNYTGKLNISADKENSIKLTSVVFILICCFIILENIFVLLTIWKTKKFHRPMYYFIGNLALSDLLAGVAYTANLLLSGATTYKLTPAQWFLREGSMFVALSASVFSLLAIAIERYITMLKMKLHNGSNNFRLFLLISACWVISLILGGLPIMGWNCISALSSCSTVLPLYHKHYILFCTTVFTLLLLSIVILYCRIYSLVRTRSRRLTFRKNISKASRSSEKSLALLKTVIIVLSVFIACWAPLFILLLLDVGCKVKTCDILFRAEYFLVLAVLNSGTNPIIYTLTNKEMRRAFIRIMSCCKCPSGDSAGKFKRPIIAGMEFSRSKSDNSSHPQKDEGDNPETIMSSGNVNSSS

SMILES: Cc1ccc(CC(CCC[S+]([O-])c2ccc(CN3CC(C(=O)O)C3)cc2)c2cccc(Cl)c2)cc1C (stereo not shown) [Compound 1, 1-(4-{[4-(3-Chlorophenyl)-5-(3,4-dimethylphenyl)pentyl]sulfinyl}benzyl)azetidine-3-carboxylic acid]
- EC50: 121 nM
